Data reported in patent US20220232869A1, “Steviol Glycoside Sweeteners with Improved Flavor Profiles” (The Coca-Cola Company, priority 2015, published 2022).

Assay: Sensory evaluation of 5 Brix and 10 Brix acidified water beverages by 15 panelists
Assay type: in vivo
Design: Astringency / Acidity / Sweet Aftertaste / Bitter Aftertaste / Overall Liking / Sweetness / Bitterness: scale not given here
Conditions: panel score
Procedure: 5 Brix and 10 Brix beverages were prepared by combining purified water containing 303 ppm citric acid and a sweetener. The 5 Brix beverages contained one of the following sweeteners: (i) 5% (wt/wt) sugar, (ii) 200 ppm A95 or (iii) 200 ppm of a 70 wt % Reb D/30 wt % Reb M blend. The 10 Brix beverages contained one of the following sweeteners: (i) 10% (wt/wt) sugar, (ii) 900 ppm A95 or (iii) 900 ppm of a 70 wt % Reb D/30wt % Reb M blend.
The beverages were served at room temperature in 2 oz clear plastic sample cups. 15 panelists evaluated the beverages for various tastes and flavors. Prior to sample evaluation, all panelists rinsed their palate with warm water. The assessors were instructed to take a sip of each beverage and rate the mouth feel and taste/flavor characteristics. 15 seconds after ingestion panelists were instructed to rate sweetness linger and aftertaste. Between samples evaluation a 1 minute rest period was allowed during which they rinsed their palate with warm water and 0.25% NaCl solution.
The various tastes and flavors measured in the evaluation are defined as follows: […]

[1] = 5 brix target, 5% sugar, 200 ppm A95 or 200 ppm blend
[2] = 10 brix target, 10% sugar, 900 ppm A95 or 900 ppm blend

In the case of `OC[C@H]1O[C@@](CO)(O[C@H]2O[C@H](CO)[C@@H](O)[C@H](O)[C@H]2O)[C@@H](O)[C@@H]1O` [Sugar], the Acidity [1] is reported as 0.99, the Astringency [1] is reported as 0.84 and the “Bitter Aftertaste” value [1] is reported as 0.33. The Bitterness [1] was 0.75, the “Off-Note (Metallic/Licorice)” value [1] was 0.52 and the “Overall Liking” value [1] was 4.96. The “Sweet Aftertaste” value [1] was 0.56, the Sweetness [1] was 4.91 and the Acidity [2] was 1.08. The Astringency [2] was 0.92, the “Bitter Aftertaste” value [2] was 0.37 and the Bitterness [2] was 0.55. The “Off-Note (Metallic/Licorice)” value [2] was 0.51, the “Overall Liking” value [2] was 6.34 and the “Sweet Aftertaste” value [2] was 1.08. It also gave a Sweetness [2] of 8.45.
